From ChEMBL document CHEMBL3991601, “The target landscape of clinical kinase drugs” (Science, 2017)
pKd: −log10 of the molar value. Active and inactive are the calls of the source. For most assays here, no stated cut-off is given here; in the data, actives have a measured Kd and inactives only a lower limit.

Columns and labels:
[1] = molecular target: RAC-gamma serine/threonine-protein kinase (Homo sapiens, UniProt Q9Y243)
[2] = molecular target: Serine/threonine-protein kinase B-raf (Homo sapiens, UniProt P15056)
Chain of Serine/threonine-protein kinase B-raf (P15056 whole entry): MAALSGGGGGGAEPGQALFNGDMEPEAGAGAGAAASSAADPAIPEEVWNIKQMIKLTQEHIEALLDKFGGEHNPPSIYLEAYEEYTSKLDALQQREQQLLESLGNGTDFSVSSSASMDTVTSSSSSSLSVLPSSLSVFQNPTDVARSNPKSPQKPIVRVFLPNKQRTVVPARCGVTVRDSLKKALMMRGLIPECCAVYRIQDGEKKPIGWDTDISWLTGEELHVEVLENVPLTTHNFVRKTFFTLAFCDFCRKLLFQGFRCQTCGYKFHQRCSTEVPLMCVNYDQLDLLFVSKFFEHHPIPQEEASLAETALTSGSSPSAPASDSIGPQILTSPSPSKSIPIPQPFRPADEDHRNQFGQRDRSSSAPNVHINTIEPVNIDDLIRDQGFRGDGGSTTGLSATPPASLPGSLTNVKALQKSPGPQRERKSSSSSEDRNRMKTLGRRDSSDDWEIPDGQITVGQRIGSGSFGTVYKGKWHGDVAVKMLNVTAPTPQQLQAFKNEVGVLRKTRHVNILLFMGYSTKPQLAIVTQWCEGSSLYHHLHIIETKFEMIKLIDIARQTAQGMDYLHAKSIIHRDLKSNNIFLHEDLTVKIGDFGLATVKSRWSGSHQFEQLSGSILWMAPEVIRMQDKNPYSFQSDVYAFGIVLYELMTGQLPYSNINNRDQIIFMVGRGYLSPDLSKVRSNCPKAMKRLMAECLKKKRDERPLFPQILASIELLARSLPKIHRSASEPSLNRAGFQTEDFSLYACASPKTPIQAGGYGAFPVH

[3] = molecular target: Cyclin-dependent kinase 12 (Homo sapiens, UniProt Q9NYV4)
[4] = molecular target: Citron Rho-interacting kinase (Homo sapiens, UniProt O14578)
Chain of Citron Rho-interacting kinase (O14578 whole entry, canonical isoform): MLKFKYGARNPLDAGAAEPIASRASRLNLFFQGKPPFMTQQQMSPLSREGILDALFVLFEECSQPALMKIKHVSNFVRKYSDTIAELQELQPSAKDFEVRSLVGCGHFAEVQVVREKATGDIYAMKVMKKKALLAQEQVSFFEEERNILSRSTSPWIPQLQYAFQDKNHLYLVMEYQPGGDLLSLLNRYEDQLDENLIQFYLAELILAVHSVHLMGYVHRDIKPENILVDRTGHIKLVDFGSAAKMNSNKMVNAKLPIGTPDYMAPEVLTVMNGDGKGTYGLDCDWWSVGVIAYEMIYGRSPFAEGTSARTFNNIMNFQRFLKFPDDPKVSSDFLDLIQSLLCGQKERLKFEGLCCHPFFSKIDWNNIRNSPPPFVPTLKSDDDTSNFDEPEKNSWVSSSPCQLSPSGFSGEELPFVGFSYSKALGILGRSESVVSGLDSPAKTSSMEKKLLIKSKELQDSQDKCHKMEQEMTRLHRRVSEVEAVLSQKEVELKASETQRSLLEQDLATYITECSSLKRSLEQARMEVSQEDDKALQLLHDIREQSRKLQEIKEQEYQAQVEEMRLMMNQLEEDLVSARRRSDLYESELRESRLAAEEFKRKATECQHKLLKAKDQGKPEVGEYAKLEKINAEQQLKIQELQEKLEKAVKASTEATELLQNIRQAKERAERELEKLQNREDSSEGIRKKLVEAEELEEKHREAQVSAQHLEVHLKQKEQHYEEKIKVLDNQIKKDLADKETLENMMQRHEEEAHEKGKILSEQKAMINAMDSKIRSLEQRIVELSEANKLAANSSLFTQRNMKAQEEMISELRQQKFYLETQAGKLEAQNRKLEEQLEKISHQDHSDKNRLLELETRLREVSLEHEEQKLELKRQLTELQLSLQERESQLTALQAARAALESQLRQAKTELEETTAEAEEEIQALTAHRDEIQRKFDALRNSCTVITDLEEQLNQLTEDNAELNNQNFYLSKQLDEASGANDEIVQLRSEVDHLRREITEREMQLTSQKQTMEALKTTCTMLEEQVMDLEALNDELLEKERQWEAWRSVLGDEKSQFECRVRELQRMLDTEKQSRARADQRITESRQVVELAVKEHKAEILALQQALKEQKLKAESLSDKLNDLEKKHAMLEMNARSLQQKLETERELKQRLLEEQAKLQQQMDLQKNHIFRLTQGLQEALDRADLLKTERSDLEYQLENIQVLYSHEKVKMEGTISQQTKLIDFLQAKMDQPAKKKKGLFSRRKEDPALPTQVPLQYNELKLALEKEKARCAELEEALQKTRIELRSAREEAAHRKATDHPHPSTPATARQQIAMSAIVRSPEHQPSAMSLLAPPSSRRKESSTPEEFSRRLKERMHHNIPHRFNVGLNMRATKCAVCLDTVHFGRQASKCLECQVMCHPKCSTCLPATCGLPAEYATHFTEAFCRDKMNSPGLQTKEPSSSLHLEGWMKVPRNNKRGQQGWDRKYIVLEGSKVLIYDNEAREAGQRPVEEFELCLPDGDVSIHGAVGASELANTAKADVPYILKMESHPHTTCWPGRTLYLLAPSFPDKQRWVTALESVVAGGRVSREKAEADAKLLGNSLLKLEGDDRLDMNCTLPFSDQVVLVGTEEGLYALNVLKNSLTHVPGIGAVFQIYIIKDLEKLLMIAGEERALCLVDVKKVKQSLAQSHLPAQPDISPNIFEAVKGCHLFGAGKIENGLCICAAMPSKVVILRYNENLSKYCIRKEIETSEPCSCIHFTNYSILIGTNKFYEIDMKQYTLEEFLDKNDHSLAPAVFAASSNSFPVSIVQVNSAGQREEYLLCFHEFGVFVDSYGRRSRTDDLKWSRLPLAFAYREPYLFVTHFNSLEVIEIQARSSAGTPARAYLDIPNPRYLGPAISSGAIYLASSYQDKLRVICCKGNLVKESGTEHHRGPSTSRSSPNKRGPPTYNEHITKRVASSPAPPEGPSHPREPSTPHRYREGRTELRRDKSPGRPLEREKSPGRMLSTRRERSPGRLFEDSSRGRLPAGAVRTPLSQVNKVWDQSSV

[5] = molecular target: Casein kinase I isoform delta (Homo sapiens, UniProt P48730)
[6] = molecular target: T1, Delta(24)-sterol reductase (Homo sapiens, UniProt Q15392)
T1 sequence (Q15392 whole entry): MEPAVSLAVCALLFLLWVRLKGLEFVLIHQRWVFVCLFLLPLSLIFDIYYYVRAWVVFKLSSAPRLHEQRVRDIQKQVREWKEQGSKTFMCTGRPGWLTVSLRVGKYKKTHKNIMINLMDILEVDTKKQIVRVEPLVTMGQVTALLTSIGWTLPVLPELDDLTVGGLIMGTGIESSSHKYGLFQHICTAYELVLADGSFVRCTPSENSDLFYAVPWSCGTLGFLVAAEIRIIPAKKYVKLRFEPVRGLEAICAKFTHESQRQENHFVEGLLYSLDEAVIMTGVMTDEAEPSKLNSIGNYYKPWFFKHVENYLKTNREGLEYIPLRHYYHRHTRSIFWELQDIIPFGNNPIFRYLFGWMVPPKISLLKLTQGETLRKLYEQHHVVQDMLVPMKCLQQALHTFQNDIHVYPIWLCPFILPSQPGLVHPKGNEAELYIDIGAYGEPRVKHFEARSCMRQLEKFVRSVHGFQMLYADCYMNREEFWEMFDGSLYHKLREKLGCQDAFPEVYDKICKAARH

Ephrin type-A receptor 7 = Ephrin type-A receptor 7 (Homo sapiens, UniProt Q15375)
Chain of Ephrin type-A receptor 7 (Q15375 whole entry): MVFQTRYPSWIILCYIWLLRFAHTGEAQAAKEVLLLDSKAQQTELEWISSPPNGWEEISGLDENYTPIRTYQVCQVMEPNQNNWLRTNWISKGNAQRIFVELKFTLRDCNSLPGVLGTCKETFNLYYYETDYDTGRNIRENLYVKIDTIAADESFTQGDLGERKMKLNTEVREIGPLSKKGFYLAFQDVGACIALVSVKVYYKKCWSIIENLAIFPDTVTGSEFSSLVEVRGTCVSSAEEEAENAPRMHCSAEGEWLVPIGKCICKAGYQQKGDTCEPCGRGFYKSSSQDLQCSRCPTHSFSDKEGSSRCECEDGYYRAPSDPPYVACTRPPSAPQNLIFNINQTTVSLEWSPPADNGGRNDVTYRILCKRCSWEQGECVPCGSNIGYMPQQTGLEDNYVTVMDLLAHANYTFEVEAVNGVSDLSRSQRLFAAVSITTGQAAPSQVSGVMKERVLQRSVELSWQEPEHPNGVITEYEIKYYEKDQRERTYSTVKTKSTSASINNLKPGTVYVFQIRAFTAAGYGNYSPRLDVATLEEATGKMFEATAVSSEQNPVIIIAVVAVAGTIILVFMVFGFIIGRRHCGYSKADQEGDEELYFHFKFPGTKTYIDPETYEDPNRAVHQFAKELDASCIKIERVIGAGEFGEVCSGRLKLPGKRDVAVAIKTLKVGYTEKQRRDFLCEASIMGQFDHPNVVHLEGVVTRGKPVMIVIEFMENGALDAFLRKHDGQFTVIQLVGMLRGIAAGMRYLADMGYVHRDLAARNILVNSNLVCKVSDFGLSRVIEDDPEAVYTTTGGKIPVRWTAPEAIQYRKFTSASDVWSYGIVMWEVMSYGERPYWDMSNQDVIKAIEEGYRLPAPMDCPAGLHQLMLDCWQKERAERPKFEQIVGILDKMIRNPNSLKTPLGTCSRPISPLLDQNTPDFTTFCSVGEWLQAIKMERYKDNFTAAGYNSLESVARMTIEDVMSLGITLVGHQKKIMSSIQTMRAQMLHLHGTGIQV

[7] = molecular target: Inosine-5'-monophosphate dehydrogenase 2 (Homo sapiens, UniProt P12268)
[8] = molecular target: MAP/microtubule affinity-regulating kinase 3 (Homo sapiens, UniProt P27448)
Chain of MAP/microtubule affinity-regulating kinase 3 (P27448 whole entry): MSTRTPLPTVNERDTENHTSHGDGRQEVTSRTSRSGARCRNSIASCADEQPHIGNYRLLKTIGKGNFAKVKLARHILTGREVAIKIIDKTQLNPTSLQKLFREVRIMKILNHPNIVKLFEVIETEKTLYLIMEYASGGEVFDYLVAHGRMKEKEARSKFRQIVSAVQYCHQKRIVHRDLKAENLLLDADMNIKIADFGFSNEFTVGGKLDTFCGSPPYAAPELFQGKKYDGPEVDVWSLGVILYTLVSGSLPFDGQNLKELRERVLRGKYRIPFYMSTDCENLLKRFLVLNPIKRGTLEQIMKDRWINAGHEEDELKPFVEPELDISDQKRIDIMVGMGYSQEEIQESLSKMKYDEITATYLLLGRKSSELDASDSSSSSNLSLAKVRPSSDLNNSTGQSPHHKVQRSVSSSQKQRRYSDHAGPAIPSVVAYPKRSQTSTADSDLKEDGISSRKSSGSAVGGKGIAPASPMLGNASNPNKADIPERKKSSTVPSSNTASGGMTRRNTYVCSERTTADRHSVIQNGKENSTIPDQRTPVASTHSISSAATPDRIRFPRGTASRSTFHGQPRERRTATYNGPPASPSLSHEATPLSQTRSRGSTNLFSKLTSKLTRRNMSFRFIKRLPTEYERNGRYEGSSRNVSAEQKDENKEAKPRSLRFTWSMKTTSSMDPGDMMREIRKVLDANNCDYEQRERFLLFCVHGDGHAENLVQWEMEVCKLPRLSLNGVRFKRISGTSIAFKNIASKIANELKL

[9] = molecular target: T2, Serine/threonine-protein kinase Nek9 (Homo sapiens, UniProt Q8TD19)
T2 sequence (Q8TD19 whole entry): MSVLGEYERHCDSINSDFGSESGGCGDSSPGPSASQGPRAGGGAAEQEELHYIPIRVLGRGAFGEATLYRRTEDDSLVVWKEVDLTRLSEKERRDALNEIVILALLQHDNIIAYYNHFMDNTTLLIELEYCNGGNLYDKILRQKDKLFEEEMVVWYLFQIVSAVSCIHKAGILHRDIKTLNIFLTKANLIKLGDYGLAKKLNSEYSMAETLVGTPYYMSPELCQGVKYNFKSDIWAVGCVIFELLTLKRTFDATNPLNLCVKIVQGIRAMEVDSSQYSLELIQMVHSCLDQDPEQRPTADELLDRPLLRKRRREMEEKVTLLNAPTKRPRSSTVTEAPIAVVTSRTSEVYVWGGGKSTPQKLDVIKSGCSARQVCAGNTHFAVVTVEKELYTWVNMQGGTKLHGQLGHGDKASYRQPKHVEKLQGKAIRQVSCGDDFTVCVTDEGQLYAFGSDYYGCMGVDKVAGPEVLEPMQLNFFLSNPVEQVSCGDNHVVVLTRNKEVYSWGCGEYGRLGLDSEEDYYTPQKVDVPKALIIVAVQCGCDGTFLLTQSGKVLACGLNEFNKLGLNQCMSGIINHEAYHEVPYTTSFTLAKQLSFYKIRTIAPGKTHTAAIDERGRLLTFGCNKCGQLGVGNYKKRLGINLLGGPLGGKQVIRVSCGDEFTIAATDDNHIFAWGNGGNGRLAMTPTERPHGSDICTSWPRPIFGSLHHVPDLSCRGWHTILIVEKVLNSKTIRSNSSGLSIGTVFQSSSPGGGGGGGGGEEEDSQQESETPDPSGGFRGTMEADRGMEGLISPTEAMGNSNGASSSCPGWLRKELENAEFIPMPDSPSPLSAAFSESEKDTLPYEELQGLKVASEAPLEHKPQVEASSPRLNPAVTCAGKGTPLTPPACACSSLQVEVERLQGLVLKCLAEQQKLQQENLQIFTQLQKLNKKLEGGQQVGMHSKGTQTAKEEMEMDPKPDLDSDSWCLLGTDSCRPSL

[10] = molecular target: T3, Serine/threonine-protein kinase D3 (Homo sapiens, UniProt O94806)
T3 sequence (O94806 whole entry): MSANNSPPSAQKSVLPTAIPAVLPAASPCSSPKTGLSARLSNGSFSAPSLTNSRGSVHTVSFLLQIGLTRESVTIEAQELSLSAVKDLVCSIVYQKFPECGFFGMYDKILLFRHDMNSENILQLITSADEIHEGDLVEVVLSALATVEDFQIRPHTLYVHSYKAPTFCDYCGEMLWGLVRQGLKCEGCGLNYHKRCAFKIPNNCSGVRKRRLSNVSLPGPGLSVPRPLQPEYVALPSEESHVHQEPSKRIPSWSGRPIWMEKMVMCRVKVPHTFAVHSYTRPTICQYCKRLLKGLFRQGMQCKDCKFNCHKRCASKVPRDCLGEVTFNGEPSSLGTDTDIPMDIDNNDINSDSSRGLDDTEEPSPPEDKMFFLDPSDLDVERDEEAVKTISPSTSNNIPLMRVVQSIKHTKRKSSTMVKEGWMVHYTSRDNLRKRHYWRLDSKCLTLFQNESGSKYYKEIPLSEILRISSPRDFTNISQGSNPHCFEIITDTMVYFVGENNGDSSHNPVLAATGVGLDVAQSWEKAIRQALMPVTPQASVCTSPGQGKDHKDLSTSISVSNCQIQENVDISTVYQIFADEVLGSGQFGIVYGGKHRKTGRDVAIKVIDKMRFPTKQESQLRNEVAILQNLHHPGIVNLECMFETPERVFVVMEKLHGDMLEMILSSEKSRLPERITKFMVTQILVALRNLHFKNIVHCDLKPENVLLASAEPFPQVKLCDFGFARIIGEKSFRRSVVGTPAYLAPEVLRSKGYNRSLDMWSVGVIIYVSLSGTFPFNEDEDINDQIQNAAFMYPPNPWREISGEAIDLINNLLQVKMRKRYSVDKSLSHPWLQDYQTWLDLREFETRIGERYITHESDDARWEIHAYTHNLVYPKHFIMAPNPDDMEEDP

[11] = molecular target: GTP-binding nuclear protein Ran (Homo sapiens, UniProt P62826)
[12] = molecular target: TRAF2 and NCK-interacting protein kinase (Homo sapiens, UniProt Q9UKE5)
[13] = molecular target: Tyrosine-protein kinase Yes (Homo sapiens, UniProt P07947)
Chain of Tyrosine-protein kinase Yes (P07947 whole entry): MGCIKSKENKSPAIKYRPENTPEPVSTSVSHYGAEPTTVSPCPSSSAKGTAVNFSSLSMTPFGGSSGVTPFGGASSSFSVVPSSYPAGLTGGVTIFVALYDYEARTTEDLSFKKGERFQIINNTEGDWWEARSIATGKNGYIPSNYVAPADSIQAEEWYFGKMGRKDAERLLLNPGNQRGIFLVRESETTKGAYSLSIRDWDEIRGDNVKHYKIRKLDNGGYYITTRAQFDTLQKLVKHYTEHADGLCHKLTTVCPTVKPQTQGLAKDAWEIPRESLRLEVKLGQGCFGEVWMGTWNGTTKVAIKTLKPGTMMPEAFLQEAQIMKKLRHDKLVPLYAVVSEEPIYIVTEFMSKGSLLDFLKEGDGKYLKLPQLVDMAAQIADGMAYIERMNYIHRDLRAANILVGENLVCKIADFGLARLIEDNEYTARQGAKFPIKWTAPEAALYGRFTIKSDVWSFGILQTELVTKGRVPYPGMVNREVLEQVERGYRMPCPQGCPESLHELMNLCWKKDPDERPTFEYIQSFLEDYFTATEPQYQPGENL

Cn1cc(-c2[nH]c3cc(NC(=O)[C@H](N)C4CCCCC4)cc4c3c2C=NNC4=O)cn1
Kd [1]: > 30 µM (inactive)
Kd [2]: > 30 µM (inactive)
Kd [3]: > 30 µM (inactive)
Kd [4]: 0.725 µM (active)
Kd [5]: > 30 µM (inactive)
Kd [6]: > 30 µM (inactive)
Kd (Ephrin type-A receptor 7): > 30 µM (inactive)
Kd [7]: > 30 µM (inactive)
Kd [8]: 0.387 µM (active)
Kd [9]: > 30 µM (inactive)
Kd [10]: > 30 µM (inactive)
Kd [11]: > 30 µM (inactive)
pKd [12]: 6.60
Kd [13]: 0.623 µM (active)

NC(=O)c1ccc(N(C(N)=O)c2c(F)cccc2F)nc1-c1ccc(F)cc1F [VX-702]
Kd [1]: > 30 µM (inactive)
Kd [2]: > 30 µM (inactive)
Kd [3]: > 30 µM (inactive)
Kd [4]: > 30 µM (inactive)
Kd [5]: > 30 µM (inactive)
Kd [6]: > 30 µM (inactive)
Kd (Ephrin type-A receptor 7): > 30 µM (inactive)
Kd [7]: > 30 µM (inactive)
Kd [8]: > 30 µM (inactive)
Kd [9]: > 30 µM (inactive)
Kd [10]: > 30 µM (inactive)
Kd [11]: > 30 µM (inactive)
Kd [12]: > 30 µM (inactive)
Kd [13]: > 30 µM (inactive)

COc1cc2ncnc(Nc3ccc(F)c(Cl)c3)c2cc1NC(=O)/C=C/CN1CCCCC1 [DACOMITINIB ANHYDROUS]
Kd [1]: > 30 µM (inactive)
Kd [2]: > 30 µM (inactive)
Kd [3]: > 30 µM (inactive)
Kd [4]: > 30 µM (inactive)
Kd [5]: > 30 µM (inactive)
Kd [6]: > 30 µM (inactive)
Kd (Ephrin type-A receptor 7): > 30 µM (inactive)
Kd [7]: > 30 µM (inactive)
Kd [8]: > 30 µM (inactive)
Kd [9]: > 30 µM (inactive)
Kd [10]: > 30 µM (inactive)
Kd [11]: > 30 µM (inactive)
Kd [12]: > 30 µM (inactive)
Kd [13]: > 30 µM (inactive)

S=C(NCc1ccc2c(c1)OCO2)N1CCN(c2ncnc3c2oc2ccccc23)CC1 [AMUVATINIB]
Kd [1]: > 30 µM (inactive)
Kd [2]: > 30 µM (inactive)
Kd [3]: > 30 µM (inactive)
Kd [4]: > 30 µM (inactive)
Kd [5]: > 30 µM (inactive)
Kd [6]: > 30 µM (inactive)
Kd (Ephrin type-A receptor 7): > 30 µM (inactive)
Kd [7]: > 30 µM (inactive)
Kd [8]: > 30 µM (inactive)
Kd [9]: > 30 µM (inactive)
Kd [10]: > 30 µM (inactive)
Kd [11]: > 30 µM (inactive)
Kd [12]: > 30 µM (inactive)
Kd [13]: > 30 µM (inactive)

C#Cc1cccc(Nc2ncnc3cc4c(cc23)OCCOCCOCCO4)c1 [ICOTINIB]
Kd [1]: > 30 µM (inactive)
Kd [2]: > 30 µM (inactive)
Kd [3]: > 30 µM (inactive)
Kd [4]: > 30 µM (inactive)
Kd [5]: > 30 µM (inactive)
Kd [6]: > 30 µM (inactive)
Kd (Ephrin type-A receptor 7): > 30 µM (inactive)
Kd [7]: > 30 µM (inactive)
Kd [8]: > 30 µM (inactive)
Kd [9]: > 30 µM (inactive)
Kd [10]: > 30 µM (inactive)
Kd [11]: > 30 µM (inactive)
Kd [12]: > 30 µM (inactive)
Kd [13]: > 30 µM (inactive)
